The values below come from article PMC6747525, “Chk1 Inhibitor MK-8776 Restores the Sensitivity of Chemotherapeutics in P-glycoprotein Overexpressing Cancer Cells” (International Journal of Molecular Sciences, 2019).

The target of data set [1] is T1, P-glycoprotein (P-gp) (Homo sapiens, UniProt P08183).
T1 construct: gene ABCB1
Briefly: biochemical.

Data set [2] concerns the target T1, P-glycoprotein (P-gp).

T1 sequence (P08183 whole entry): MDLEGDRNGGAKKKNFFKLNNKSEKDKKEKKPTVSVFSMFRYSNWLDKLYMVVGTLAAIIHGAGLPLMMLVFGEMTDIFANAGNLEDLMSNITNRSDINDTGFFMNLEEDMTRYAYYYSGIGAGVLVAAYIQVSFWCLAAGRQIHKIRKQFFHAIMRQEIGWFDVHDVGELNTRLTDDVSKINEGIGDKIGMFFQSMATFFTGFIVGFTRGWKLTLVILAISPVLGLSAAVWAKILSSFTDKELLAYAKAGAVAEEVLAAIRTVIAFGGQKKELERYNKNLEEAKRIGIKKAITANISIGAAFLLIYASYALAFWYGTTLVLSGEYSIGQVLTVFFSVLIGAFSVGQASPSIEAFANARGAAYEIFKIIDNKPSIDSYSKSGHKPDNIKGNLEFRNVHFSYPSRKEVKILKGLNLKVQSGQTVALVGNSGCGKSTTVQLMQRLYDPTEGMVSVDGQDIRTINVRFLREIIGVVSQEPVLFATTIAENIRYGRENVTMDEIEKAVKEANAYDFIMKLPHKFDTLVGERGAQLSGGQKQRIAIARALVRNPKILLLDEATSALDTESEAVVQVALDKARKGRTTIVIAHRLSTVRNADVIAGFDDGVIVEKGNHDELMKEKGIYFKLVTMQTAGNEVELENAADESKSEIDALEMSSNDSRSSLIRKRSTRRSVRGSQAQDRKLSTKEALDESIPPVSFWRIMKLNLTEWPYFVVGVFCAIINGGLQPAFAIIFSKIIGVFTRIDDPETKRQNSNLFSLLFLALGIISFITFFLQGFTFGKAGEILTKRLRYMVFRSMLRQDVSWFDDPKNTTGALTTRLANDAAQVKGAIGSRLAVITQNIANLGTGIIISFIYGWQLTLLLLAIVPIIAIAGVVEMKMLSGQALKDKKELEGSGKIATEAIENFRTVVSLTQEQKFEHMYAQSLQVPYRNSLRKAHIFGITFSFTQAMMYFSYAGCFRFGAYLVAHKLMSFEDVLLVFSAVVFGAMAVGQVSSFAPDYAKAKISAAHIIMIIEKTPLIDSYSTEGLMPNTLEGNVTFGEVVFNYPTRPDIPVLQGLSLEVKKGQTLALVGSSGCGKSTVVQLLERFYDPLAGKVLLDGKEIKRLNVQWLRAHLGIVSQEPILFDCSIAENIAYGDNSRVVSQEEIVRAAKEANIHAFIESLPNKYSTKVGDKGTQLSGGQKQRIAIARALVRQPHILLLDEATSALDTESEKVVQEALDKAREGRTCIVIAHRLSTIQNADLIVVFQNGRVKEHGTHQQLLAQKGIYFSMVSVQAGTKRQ

Broadly, the EC50 is the concentration needed to bring the measured effect to its halfway point. Read a low EC50 as an effect from little substance. In turn, `Cn1cc(-c2cnn3c(N)c(Br)c([C@@H]4CCCNC4)nc23)cn1` [MK-8776] showed an EC50 at P-glycoprotein (P-gp) [1] of 3.8 µM.

Consider `CC(=O)O[C@H]1C(=O)[C@@]2(C)[C@H]([C@H](OC(=O)c3ccccc3)[C@]3(O)C[C@H](OC(=O)[C@H](O)[C@@H](NC(=O)c4ccccc4)c4ccccc4)C(C)=C1C3(C)C)[C@]1(OC(C)=O)CO[C@@H]1C[C@@H]2O` [paclitaxel], for which the “[3H]-paclitaxel accumulation and efflux in P-gp-overexpressing KB-C2 versus pare” value on P-glycoprotein (P-gp) [2] is “[^3H]-paclitaxel efflux increased significantly compared with that in their parental KB-3-1 cells”.
